Measured values as given in US9162984B2, “Small-molecule modulators of melanin expression” (University of Rochester, priority 2007, dated 2015).

Columns and labels:
Assay type in all cases: cell-based, mice
[1] = test system: melan-a murine melanocyte cell line; assay: Melanin induction screening in melan-a melanocytes; settings: for activity for inducing melanin production: initial screening, 2.5 μM, 3 days, melanin normalized to cell count, vs DMSO
Description: (§1) The melan-a murine melanocyte cell line was chosen for library screening. This is a non-tumorogenic line of melanocytes derived from the skin of C57Bl/6J mice (Bennett et al., Int. J. Cancer 39:414 (1987), which is hereby incorporated by reference in its entirety). These cells are ideal for phenotypic melanin screening as they proliferate quickly, are highly differentiated, and have been extensively studied (Snyder et al., Chemistry & Biology 12(4):477 (2005), which is hereby incorporated by reference in its entirety). Melanocytes were cultured in RPMI 1640 media supplemented with 10% FBS and 0.2 μM TPA, at 37° C. under 5% CO2, 95% atmosphere. For screening, 1×10^5 melan-a melanocytes were plated in 24 well tissue culture plates in a volume of 2 ml. After 18 hr incubation, 1 ml of media was removed and replaced by 1 ml media doped with small molecule, forskolin positive control, or DMSO vehicle control for 3 days. Initial screening was performed at a 2.5 μM dose (0.01% DMSO). Cells were harvested by trypsinization, washed 2× with PBS (pH 7.2), and counted by hemocytometry. Cell counts were used to assess treatment effects on cell proliferation. Melanin production was quantified by lysing cell pellets in 800 μl of 1 M NaOH for 2 hrs on ice, vigorously resuspending the lysed material by pipette, reading the absorbance at 490 nm of 200 μl aliquots of total lysate, and referencing to a standard synthetic melanin (Sigma) curve. The 75 member library was screened in triplicate. Melanin production was normalized to cell count (A490/million cells) and fold change against DMSO was calculated (FIG. 2).

[2] = test system: melan-a murine melanocyte cell line; assay: Cell counts by hemocytometry to assess treatment effects on cell proliferation
Description: as §1, with “After 18 hr incubation, 1 ml of media was removed and replaced by 1 ml media doped with small molecule, forskolin positive control, or DMSO vehicle control for 3 days. Initial screening was performed at a 2.5 μM dose (0.01% DMSO).” left out, “Cell counts were used to assess treatment effects on cell proliferation.” left out, “The 75 member library was screened in triplicate.” left out

[3] = test system: melan-a melanocytes; assay: Melanocyte dendricity by hematoxylin staining; settings: 2.5 μM, 72 hours; untreated 36%
Method: Melanocytes are highly dendritic cells, and dendricity has been correlated with melanin production (Kosano et al., Biochim. Biophys. Acta 1499:11 (2000); Scott et al., J. Invest. Dermatol. 126:855 (2006), which are hereby incorporated by reference in their entirety). Dendricity was assessed by histochemical hematoxylin staining of melan-a melanocytes with and without 2.5 μM A7 treatment. 1×10^4 melan-a melanocytes were cultured onto vitrogen coated cover slips and treated with 2.5 μM A7 or vehicle control for 72 hours. Cells were fixed in 3.7% formalin/PBS, stained with hematoxylin, and imaged. Dendrites per cell were manually quantitated, and the percentage of cells with greater than 2 dendrites was calculated.

[4] = test system: Tyrosinase; assay: Tyrosinase activity assay (tritiated water from L-tyrosine-3,5-[3H]) in lysates of treated melanocytes; settings: 2.5 μM, 3 days; to a lesser degree than forskolin positive control
Description: To further understand the mode of action for A7, tyrosinase activity was quantitated. Tyrosinase functions to hydroxylate tyrosine to dopaquinone and L-DOPA in the first step of melanin production (Ito, Pigment Cell Res. 16:230 (2003), which is hereby incorporated by reference in its entirety). As such, increased tyrosinase activity leads to increased melanin production. Tyrosinase activity can be measured by monitoring the production of tritiated water upon the hydroxylation of L-tyrosine-3,5-[^3H] to L-DOPA (Pomerantz, J. Biol. Chem. 241(1):161 (1966); Park et al., J. Biol. Chem. 268:11742 (1993), which are hereby incorporated by reference in their entirety).
Similarly to library screening, in quadruplet, melanocytes were cultured with and without 2.5 μM small molecule treatment for 3 days. Resulting cell pellets were lysed in 75 μl of 80 mM K2PO4, 1% CHAPS, 2 mM PMSF, and PICO2 protease inhibitor cocktail (CalBioChem) for 2 hours on ice. Lysates were then pelleted (10 minutes, 4° C., 10,000 rpm) and protein concentration was determined by Bradford assay. […] Aliqouts of 1.0 ml of the tritiated water containing supernatant were transferred to scintillation vials containing 5.0 ml scintillation fluid, and ^3H levels were counted. […]

[5] = test system: Tyrosinase; assay: Western blot analysis of cellular tyrosinase levels; settings: treated melanocytes

CCc1nc2ccccc2cc1C(=O)NCCc1ccc(F)cc1 [Compound A5, N-(4-fluorophenethyl)-2-ethylquinoline-3-carboxamide]
activity for inducing melanin production [1]: some activity

CCc1nc2ccccc2cc1C(=O)NCCc1cccc(F)c1 [Compound A7, N-(3-fluorophenethyl)-2-ethylquinoline-3-carboxamide]
concentration giving the optimal melanogenic response ([1]; dose response, melanin quantity normalized to DMSO): 2.5 µM
activity for inducing melanin production [1]: some activity
ranking of melanin induction among hits ([1]; subsequent analysis of library hits): most active hit
effect on cell proliferation in dose response ([2]; concentrations up to 5 μM): no significant effect on cell proliferation
cytotoxic effects in cell culture ([2]; melanocytes in culture): does not exhibit cytotoxic effects
percentage of cells with greater than 2 dendrites [3]: 69%
tyrosinase activity in melanocyte culture [4]: increases tyrosinase activity
cellular levels of tyrosinase [5]: not altered

O=C(NCc1ccco1)c1ccco1 [Compound C1, N-((furan-2-yl)methyl)furan-2-carboxamide]
activity for inducing melanin production [1]: some activity

CCCCNC(=O)c1ccco1 [Compound C2, N-butylfuran-2-carboxamide]
activity for inducing melanin production [1]: some activity

O=C(NCCc1ccc(F)cc1)c1ccco1 [Compound C5, N-(4-fluorophenethyl)furan-2-carboxamide]
activity for inducing melanin production [1]: some activity

O=C(NCCc1cccc(F)c1)c1ccco1 [Compound C7, N-(3-fluorophenethyl)furan-2-carboxamide]
activity for inducing melanin production [1]: some activity

CC1(C)CCCC(C)(C)N1C(=O)c1ccco1 [Compound C10, (furan-2-yl)(2,2,6,6-tetramethylpiperidin-1-yl)methanone]
activity for inducing melanin production [1]: some activity

CC1(C)CCCC(C)(C)N1C(=O)c1c(F)c(F)c(F)c(F)c1F [Compound D10, (2,2,6,6-tetramethylpiperidin-1-yl)(perfluorophenyl)methanone]
activity for inducing melanin production [1]: some activity

Cc1cc(NC(=O)c2c(F)c(F)c(F)c(F)c2F)no1 [Compound D12, 2,3,4,5,6-pentafluoro-N-(5-methylisoxazol-3-yl)benzamide]
activity for inducing melanin production [1]: some activity

O=C(c1ccc2c(c1)OCO2)N1CCN(c2ccc(F)cc2)CC1 [Compound E4, (benzo[d][1,3]dioxol-5-yl)(4-(4-fluorophenyl)piperazin-1-yl)methanone]
activity for inducing melanin production [1]: some activity
